# According to patent US20040137454A1, “Assay for drug-induced recoding” (priority 2004, published 2004):
# How the values were obtained:
# [1] = system: antizyme 1 polyamine-regulated frameshifting sequence; assay: Dual luciferase reporter assay of antizyme 1 +1 frameshifting (p2Lucaz1) in transfected cells; format: cell-based, human; conditions: for Maximal frameshifting stimulation: HEK293, standard growth conditions without DFMO, 0.01-0.1 mM spermine, 0.1-2 mM spermidine, 0.5-2 mM putrescine; for Fold increase of antizyme 1 frameshifting upon polyamine addition to DFMO pre-treated cells: HEK293 pre-treated with DFMO, 0.1 mM spermine, 2 mM spermidine, 2 mM putrescine; for Effect on amount of frameshifting, p2Lucaz1: cultured mammalian cells, controls 2.5 mM DFMO
# Excerpt: Referring now to FIG. 2, the construction of illustrative embodiments of the dual reporter assay constructs is depicted. These illustrative embodiments use the renilla and firefly luciferases as first and second reporters, respectively. […] Pat. […] The shift site (TCCT), corresponding to UCCU in the corresponding mRNA, is present at nucleotides 55-58 of each of these sequences. […] Zero frame (“0 frame”) controls for each construct were identical except that the first T of the stop codon following the shift site was deleted. It will be appreciated that the DNA constructs disclosed herein are merely examples of dual reporter constructs comprising two reporter-encoding DNA segments separated by a cloning site containing a polyamine-regulated frameshifting sequence, and that all such constructs are included within the scope of the present invention. Cultured mammalian cells are transfected with the dual construct according to method well known in the art. Parallel cell lines are transfected with the +1 reading frame and 0 reading frame construct according to methods well known in the art. The cells are then incubated under varying conditions to test the effect of such conditions on the polyamine regulation. Cells are then lysed and the luciferase activity measured by light emission after injection of luminescence substrate, as is well known in the art. […] This provides a quantitative assay for measuring the polyamine-induced recoding. […] Similarly, mouse germ line (GC-2) cells were obtained from the American Tissue Type culture Collection (Manassas, Va.). […] All cells were incubated at 37° C. in an atmosphere of 5% CO2 All media and antibiotics were obtained from Invitrogen Life Technologies (Carlsbad, Calif.), and all sera were obtained from HyClone Inc. (Logan Utah). The cells were transfected with the dual luciferase constructs p2Lucaz1 and p2Lucaz2 using LIPOFECTIN reagent (Invitrogen Life Technologies). LIPOFECTIN reagent is a 1:1 (w/w) liposome formulation of the cationic lipid […],-trimethylammonium chloride (DOTMA), and dioleoyl phosphotidylethanolamine (DOPE) in membrane filtered water. Cells (0.3×10^5) were plated in 48-well, treated tissue culture plates and grown for 48 hours as described above. DFMO (2.5 mM) was added to half the plates of each cell line to inhibit polyamine synthesis. […] Cells were lysed using passive lysis buffer and luciferase activity was determined using the Dual Luciferase reporter assay (Promega, Madison, Wis.) as described in Grentzmann, supra. For all reactions, light emission was measure between 2 and 12 seconds after 100 μl of luminescence substrate was injected.
# endogenous antizyme = assay: Endogenous antizyme levels measured as ODC-inhibitory activity in HEK293 cell extracts; format: cell-based, human; conditions: HEK293 cells, 24 hours; for Antizyme: 1 mM aminoguanidine
# Procedure: The endogenous antizyme levels were also measured for comparison. HEK293 cells were plated in 10 cm dishes with 10 ml of the growth media as described above at a concentration of 3×10^5 cells/ml and incubated for 24 hours. The medium was replaced with fresh medium supplemented with 1 mM aminoguanidine and various concentrations of either putrescine, spermidine, or spermine. The dishes were incubated further for 24 hours, placed on ice, washed with phosphate buffered saline twice, drained completely, and cells were disrupted by 3 freeze/thaw cycles. Then 0.5 ml of cell extract buffer (25 mM Tris-HCl, pH 7.2, 1 mM dithiothreitol, 1 mM EDTA, and 0.01% Tween 80) was added, and the cell suspension was centrifuged at 15,000 rpm for 30 minutes at 4° C. Antizyme activities were measured as ODC-inhibitory activities that could be reversed by excess antizyme inhibitor. Cell extracts (40 μl) were mixed with 2.0 units of mouse kidney ODC in duplicate. To one set, 0.1 μg of GST-antizyme inhibitor protein was added. ODC activity of each mixture was assayed by measuring the release of ^14CO2 from L-[1-^14C] ornithine (as described in I. P. Ivanov et al., Discovery of a Spermatogenesis Stage-specific Ornithine Decarboxylase Antizyme: Antizyme 3, 97 Proc. Nat'l Acad. Sci. USA 97, 4808-4813 (2000); I. P. Ivanov et al., Conservation of Polyamine Regulation by Translational Frameshifting from Yeast to Mammals, 19 EMBO J. 1907-1917 (2000); S. Matsufuji et al., Reading Two Bases Twice: Mammalian Antizyme Frameshifting in Yeast, 15 EMBO J. 1360-1370 (19%)), and expressed as specific activities. Protein concentrations of the extracts were determined with the BCA protein assay kit (Pierce) using bovine serum albumin as a standard. One unit of ODC and antizyme was defined as the activity releasing […] CO2 per hour and the activity inhibiting 1 unit of ODC, respectively.
# [2] = system: antizyme 1 and 2 frameshifting sequences with downstream pseudoknot deleted; assay: Dual luciferase frameshifting assay, downstream pseudoknot deletion constructs p2Lucaz1pkdel and p2Lucaz2pkdel; format: cell-based, human; conditions: 1 mM spermidine added to DFMO (2.5 mM) treated HEK293 cells
# Excerpt: (§1) Referring now to FIG. 2, the construction of illustrative embodiments of the dual reporter assay constructs is depicted. These illustrative embodiments use the renilla and firefly luciferases as first and second reporters, respectively. The sequences referred to herein as SEQ ID NO:1 and SEQ ID NO:2, which comprise antizyme 1 and 2 polyamine-regulated frameshifting sequences, respectively, were cloned into the SalI and BamHI sites of the p2Luc vector (U.S. Pat. No. 6,143,502) to produce plasmids p2Lucaz1 and p2Lucaz2. The shift site (TCCT), corresponding to UCCU in the corresponding mRNA, is present at nucleotides 55-58 of each of these sequences. […]
# (§2) To determine the effectiveness of the role of sequences flanking the frameshift site in inducing frameshifting levels, dual luciferase constructs were made in which antizyme sequences preceding and following the antizyme 1 and 2 frameshift sites were deleted. […] As described above, these constructs were then transiently transfected into HEK293 cells grown in standard growth nedia or media with 2.5 mM DFMO, and frameshift levels were measured following the addition of exogenously added spermidine (1 mM).
# [3] = system: antizyme 2 polyamine-regulated frameshifting sequence; assay: Dual luciferase reporter assay of antizyme 2 +1 frameshifting (p2Lucaz2) in transfected cells; format: cell-based, human; conditions: for Effect on amount of frameshifting, p2Lucaz2: cultured mammalian cells, controls 2.5 mM DFMO
# Excerpt: Referring now to FIG. 2, the construction of illustrative embodiments of the dual reporter assay constructs is depicted. These illustrative embodiments use the renilla and firefly luciferases as first and second reporters, respectively. The sequences referred to herein as SEQ ID NO:1 and SEQ ID NO:2, which comprise antizyme 1 and 2 polyamine-regulated frameshifting sequences, respectively, were cloned into the SalI and BamHI sites of the p2Luc vector (U.S. Pat. No. 6,143,502) to produce plasmids p2Lucaz1 and p2Lucaz2. The shift site (TCCT), corresponding to UCCU in the corresponding mRNA, is present at nucleotides 55-58 of each of these sequences. Constructs were also prepared with deletions of the upstream stimulatory sequences of the antizyme 1 polyamine-regulated frameshifting sequence (SEQ ID NO:3) and the antizyme 2 polyamine-regulated frameshifting sequence (SEQ ID NO:4), resulting in plasmids p2Lucaz1usdel and p2Lucaz2usdel. Other constructs were prepared with deletions of the downstream pseudoknot stimulatory sequences of the antizyme 1 polyamine-regulated frameshifting sequence (SEQ ID NO:5) and the antizyme 2 polyamine-regulated frameshifting sequence (SEQ ID NO:6), resulting in plasmids p2Lucaz1pkdel and p2Lucaz2pkdel. Zero frame (“0 frame”) controls for each construct were identical except that the first T of the stop codon following the shift site was deleted. […]
# Cultured mammalian cells are transfected with the dual construct according to method well known in the art. Parallel cell lines are transfected with the +1 reading frame and 0 reading frame construct according to methods well known in the art. […] Cells are then lysed and the luciferase activity measured by light emission after injection of luminescence substrate, as is well known in the art. […] This provides a quantitative assay for measuring the polyamine-induced recoding. […]
# [4] = system: antizyme 1 and 2 frameshifting sequences with upstream stimulatory sequences deleted; assay: Dual luciferase frameshifting assay, upstream deletion constructs p2Lucaz1usdel and p2Lucaz2usdel; format: cell-based, human; conditions: 1 mM spermidine added to DFMO (2.5 mM) treated HEK293 cells
# Excerpt: as §1, §2
# HEK293 cells = assay: Intracellular polyamine levels by HPLC analysis of whole cell lysates; format: cell-based, human
# Procedure: Polyamine levels were also measured for comparison. Intracellular polyamine levels were determined by HPLC analysis of whole cell lysates. Cells (3×10^5) were grown in 6-well plates for 48 hours at 37° C. in an atmosphere of 5% CO2, either in the presence or absence of DFMO. Cells were then mock transfected as described above. […] Cells were allowed to grow for 12 hours, and 5×10^6 cells were harvested and washed three times with phosphate buffered saline.
# [5] = system: antizyme 3 frameshifting sequence; assay: Dual luciferase reporter assay with p2Luc containing the antizyme 3 frameshifting sequence; format: cell-based; conditions: cultured mammalian cells, controls 2.5 mM DFMO
compound,measurement,setting,value
"NCCCCN [Putrescine, putrescine]",Maximal frameshifting stimulation,[1],approximately 40%
same,Fold increase of antizyme 1 frameshifting upon polyamine addition to DFMO pre-treated cells,[1],~10 fold
same,Fold Increase (antizyme vs control),endogenous antizyme; 2 mM exogenous polyamine,1.5
same,Antizyme,endogenous antizyme; 2 mM exogenous polyamine,3.0 ± 0.7 units/mg
"NCCCCNCCCN [Spermidine, spermidine]","Stimulation of frameshifting, downstream (pseudoknot) deletion constructs",[2],approximately 2 fold
same,Maximal frameshifting stimulation,[1],approximately 40%
same,Fold increase of antizyme 1 frameshifting upon polyamine addition to DFMO pre-treated cells,[1],~10 fold
same,Antizyme 2 frameshifting response compared with antizyme 1,"[3]; HEK293, with or without DFMO, FIG. 4",showed a very similar response to polyamine depletion and addition
same,"Stimulation of frameshifting, upstream deletion constructs",[4],5-6 fold
same,Increase of intracellular spermidine levels over control cells,HEK293 cells; 1 mM spermidine added to DFMO treated HEK293 cells,1.5 fold
same,Effect on intracellular putrescine and spermine levels,HEK293 cells; 1 mM spermidine added to DFMO treated or untreated HEK293 cells,restored putrescine and spermine levels to nearly that of control cells
same,Increase of intracellular spermidine levels over control cells,HEK293 cells; 1 mM spermidine added to untreated (no DFMO) HEK293 cells,1.7 fold
same,Fold Increase (antizyme vs control),endogenous antizyme; 1 mM exogenous polyamine,1.1
same,Antizyme,endogenous antizyme; 1 mM exogenous polyamine,23 ± 0.2 units/mg
same,Fold Increase (antizyme vs control),endogenous antizyme; 2 mM exogenous polyamine,1.6
same,Antizyme,endogenous antizyme; 2 mM exogenous polyamine,3.4 units/mg
"NCCCNCCCCNCCCN [Spermine, spermine]",Maximal frameshifting stimulation,[1],approximately 40%
same,Fold increase of antizyme 1 frameshifting upon polyamine addition to DFMO pre-treated cells,[1],~10 fold
same,Fold Increase (antizyme vs control),endogenous antizyme; 0.4 mM exogenous polyamine,1.2
same,Antizyme,endogenous antizyme; 0.4 mM exogenous polyamine,2.6 ± 0.5 units/mg
same,Fold Increase (antizyme vs control),endogenous antizyme; 0.8 mM exogenous polyamine,1.4
same,Antizyme,endogenous antizyme; 0.8 mM exogenous polyamine,3.0 ± 0.6 units/mg
N=C(N)NCCCCN [agmatine],"Effect on amount of frameshifting, antizyme 3 frameshifting sequence","[5]; 0-16 mM agmatine, FIG. 7A",no increase in frameshifting was observed
same,"Effect on amount of frameshifting, p2Lucaz1","[1]; 0-16 mM agmatine, FIG. 7A",significantly increased the amount of frameshifting observed
same,"Effect on amount of frameshifting, p2Lucaz2","[3]; 0-16 mM agmatine, FIG. 7A",significantly increased the amount of frameshifting observed
NCCCCCN [cadaverine],"Effect on amount of frameshifting, antizyme 3 frameshifting sequence","[5]; 0-32 mM cadaverine, FIG. 7B",no increase in frameshifting was observed
same,"Effect on amount of frameshifting, p2Lucaz1","[1]; 0-32 mM cadaverine, FIG. 7B",effective for significantly increasing the amount of frameshifting observed
same,"Effect on amount of frameshifting, p2Lucaz2","[3]; 0-32 mM cadaverine, FIG. 7B",effective for significantly increasing the amount of frameshifting observed
